According to patent US9795593B2, “Use of 3-(3-[1,2,4]-triazolo)-oxatriazolium-5-olate for treating sexual disorders” (LIMITED LIABILITY COMPANY “KONSORTSIUM-PIK”, priority 2014, dated 2017):
Marks after values point to notes of the source that are not given here.

How the values were obtained:
[1] = test system: sGC in the aortic tissue; conditions: aorta of Wistar rats; cited from earlier work
[2] = test system: conscious SHR and Wistar rats; conditions: cited from earlier work
[3] = test system: sexual behaviour in male rats; assay: Sexual activity of male rats with a receptive female, 30-minute observation after the treatment cycle; assay type: in vivo, rat; parameters: key to Ejaculation rate / Muzzling, licking of the females: + - present; − - absent; conditions: for Intromission rate / Mounting rate: 30-minute period; for Intromission rate / Mounting rate / Intersession interval / Mounting latency: M ± m; for Intromission rate / Mounting rate / Intersession interval / Mounting latency / Ejaculation rate / Muzzling, licking of the females: n = 8
Method: (§1) In the model of arterial hypertension with endothelial dysfunction, endothelial NOS blocker N-nitro-L-arginine methyl ester (L-NAME) was administered intraperitoneally, 25 mg/kg, daily, for 7 days. The blocker was administered in 3% sodium chloride in the dose 1 ml/100 g of body weight. This combination of NO-synthase inhibitor with hypertonic solution provides RAAS activation, aldosterone discharge, retention of sodium and water, functional impairment of the vascular endothelium.
(§2) The animals were divided into the arms as follows: 1—intact animals; 2—control group, males (L-NAME+NaCl; physiological saline as placebo); 3—male rats that received AS-6 in the dose 0.5 mg/kg (Dose 1); 4—male rats that received AS-6 in the dose 5 mg/kg (Dose 2); 5—male rats that received AS-6 in the dose 10 mg/kg (Dose 3); 6—virgin female rats (only in the assessment of the sexual activity). Each group included 8 animals.
Testing of the animals' sexual activity was performed after the end of treatment cycle. Tested male was placed into the testing chamber (40×40×30 cm), 5 minutes before the presentation of sexually receptive female rat. One female was placed next to each male. The assessment of sexual behaviour was performed in the dark room at blind red light. The components of sexual activity were visually recorded during a 30-minute period: mounting latency (ML—interval from the female placing into the cage to the first male mounting) and the rate of mountings, intromissions and ejaculations.

[4] = test system: male Wistar rats, model of arterial hypertension with endothelial dysfunction; assay: Blood pressure and heart rate in rat model of arterial hypertension with endothelial dysfunction (L-NAME + 3% NaCl); assay type: in vivo; conditions: for DBP / HR / SBP: M ± m, n = 8
Method: as §1
The experiments were performed with the use of 40 white male Wistar rats with the baseline body weight 220-240 g and 20 white virgin female rats 180-200 g. The animals were purchased from Rappolovo farm (Russian Academy of Medical Sciences, Saint-Petersburg). Besides mixed fodder, the rats received bread.
AS-6 substance (lot 080909) containing 101.0% of the active ingredient was used, according to the Protocol of Analysis No. 80-Pr, dated by 25 Sep. 2009 (Federal State Unitary Enterprise Special Technology and Construction Bureau “Tekhnolog”). The substance was used for preparation of solutions for daily oral administration based on the physiological saline.
The physiological saline was used as placebo. The solutions were administered daily through the atraumatic metallic feeding tube with fire-polished olive with the use of dosing syringe.
as §2
The measurement of the blood pressure in rats was performed with the use of the system for non-invasive blood pressure measurement for small animals within the complex Polygraph for electrophysiological studies (MP150WSW “BIOPAC Systems, Inc.”, USA.)
Rats were placed into special boxes. HR and BP (SBP and DBP) were recorded several minutes after the stabilization of the measured parameters. The parameters were measured on the tails with the use of piezoelectric probe and corresponding cuff, several minutes following animal placement on the thermostated sheet that maintained the temperature in the chambers within 26-27° C. The functional cardiovascular testing was performed before (at baseline) and after the administration of NOS inhibitor and at the end of treatment.

[5] = test system: vascular endothelial growth factor (VEGF); assay: Serum vascular endothelial growth factor (ELISA) in the model of arterial hypertension with endothelial dysfunction; assay type: in vivo, rat; conditions: for VEGF: rat serum at the end of experiment, M ± m, n = 8
Method: as §1, §2
Biochemical parameters were assessed with the use of prearranged kits (USCN Life Science Inc., USA, Bender MedSystems GmbH, Austria, R&D Systems, USA). The measurement was performed with the use of multifunctional photometer Synergy-2 (BioTek Instruments, Inc., USA). All studies were conducted in compliance with current laboratory regulations.
The assessment of endothelin-1, vascular endothelial growth factor and nitric oxide levels was performed in the rats' serum at the end of experiment with the use of immuno-enzyme analysis and spectrophotometric analysis with species-specific (rat-specific) antibodies.
Quantitative measurement of vascular endothelial growth factor (VEGF) was performed with the use of ELISA with Bender MedSystems GmbH (Austria) kits. Calibration solution 100 mcL, serum samples of the experimental animals (50 mcL) and sample diluent (50 mcL) were introduced into the plate wells. Then, 50 mcL of biotin conjugate were added. After 2-hour incubation at 20° C., the wells were 6 time rinsed, and 100 mcL of streptavidin/horseradish peroxidase conjugate were introduced into each well. Thereafter, the plate was incubated again at 37° C. for 1 hour. The plate was 6 times rinsed with washing buffer, and 100 mcL of TMB substrate were introduced into each well. After 30-minute incubation at 20° C., 100 mcL of stop-solution were added. The reaction was read at 450 and 620 nm.

[6] = AS-6 0.5 mg/kg oral daily, After treatment (Day 14)
[7] = AS-6 5 mg/kg oral daily, After treatment (Day 14)
[8] = AS-6 10 mg/kg oral daily, After treatment (Day 14)
[9] = arm AS-6 0.5 mg/kg, Baseline (Day 0), before L-NAME and treatment
[10] = arm AS-6 0.5 mg/kg, Post-dose L-NAME (Day 7), before treatment
[11] = arm AS-6 5 mg/kg, Baseline (Day 0), before L-NAME and treatment
[12] = arm AS-6 5 mg/kg, Post-dose L-NAME (Day 7), before treatment
[13] = arm AS-6 10 mg/kg, Baseline (Day 0), before L-NAME and treatment
[14] = arm AS-6 10 mg/kg, Post-dose L-NAME (Day 7), before treatment

SMILES: [O-]c1n[n+](-c2nc[nH]n2)no1 [AS-6, 3-(3-[1,2,4]-triazolo)-oxatriazolium-5-olate]
- activation of cGMP synthesis compared to baseline [1]: up to 13 fold
- hypotensive effect [2]: prolonged hypotensive effect
- increase of number of animals with intromissions vs. control ([3]; AS-6 10 mg/kg): 4 fold
- number of animals with intromissions ([3]; AS-6 10 mg/kg): 50%
- animals with increased mounting rate vs. control ([3]; AS-6 0.5 and 5 mg/kg): 40%
- decrease of ML (mounting latency) ([3]; AS-6 0.5 and 5 mg/kg): 1.5 fold
- number of animals with intromissions ([3]; AS-6 0.5 and 5 mg/kg): 25%
- rats with increased intromission rate ([3]; AS-6 0.5 and 5 mg/kg): 25%
- Intromission rate ([3]; Azasidnon 0.5 mg/kg): 1.6 ± 1.4
- Mounting rate ([3]; Azasidnon 0.5 mg/kg): 6.6 ± 2.8
- Intersession interval ([3]; Azasidnon 0.5 mg/kg): 8.8 ± 0.9 min
- Mounting latency ([3]; Azasidnon 0.5 mg/kg): 3.9 ± 0.9*^ min
- Ejaculation rate ([3]; Azasidnon 0.5 mg/kg): −
- Muzzling, licking of the females ([3]; Azasidnon 0.5 mg/kg): +
- Intromission rate ([3]; Azasidnon 5.0 mg/kg): 1.4 ± 1.1
- Mounting rate ([3]; Azasidnon 5.0 mg/kg): 7.4 ± 3.1
- Intersession interval ([3]; Azasidnon 5.0 mg/kg): 10.2 ± 2.2 min
- Mounting latency ([3]; Azasidnon 5.0 mg/kg): 4.2 ± 1.9*^ min
- Ejaculation rate ([3]; Azasidnon 5.0 mg/kg): −
- Muzzling, licking of the females ([3]; Azasidnon 5.0 mg/kg): +
- Intromission rate ([3]; Azasidnon 10.0 mg/kg): 3.1 ± 1.5
- Mounting rate ([3]; Azasidnon 10.0 mg/kg): 8.6 ± 2.6
- Intersession interval ([3]; Azasidnon 10.0 mg/kg): 7.5 ± 1.9 min
- Mounting latency ([3]; Azasidnon 10.0 mg/kg): 3.2 ± 1.4*^ min
- Ejaculation rate ([3]; Azasidnon 10.0 mg/kg): −
- Muzzling, licking of the females ([3]; Azasidnon 10.0 mg/kg): +
- influence on ejaculation ([3]; all doses): did not influence
- effect on SBP and DBP levels ([4]; AS-6 0.5 mg/kg): did not affect SBP or DBP levels
- DBP [4, 6]: 111.9 ± 5.2 mm Hg
- HR [4, 6]: 420.0 ± 13.7
- SBP [4, 6]: 153.1 ± 7.3 mm Hg
- effect on SBP and DBP levels ([4]; AS-6 5 mg/kg): decrease of elevated DBP and unchanged elevated SBP
- DBP [4, 7]: 111.5 ± 7.9 mm Hg
- HR [4, 7]: 435.9 ± 28.9
- SBP [4, 7]: 141.9 ± 7.1 mm Hg
- DBP [4, 8]: 102.0 ± 3.2 mm Hg
- HR [4, 8]: 404.4 ± 17.6
- SBP [4, 8]: 123.4 ± 4.2 mm Hg
- effect on blood pressure ([4]; AS-6 10 mg/kg, vs. baseline values and experimental model, p<0.05): normalization of the blood pressure
- DBP [4, 9]: 98.7 ± 2.2 mm Hg
- HR [4, 9]: 417.6 ± 17.6
- SBP [4, 9]: 126.2 ± 2.5 mm Hg
- DBP [4, 10]: 113.8 ± 4.6 mm Hg
- HR [4, 10]: 351.8 ± 8.7
- SBP [4, 10]: 145.0 ± 3.1 mm Hg
- DBP [4, 11]: 97.9 ± 3.2 mm Hg
- HR [4, 11]: 428.2 ± 22.1
- SBP [4, 11]: 123.8 ± 3.4 mm Hg
- DBP [4, 12]: 117.0 ± 4.4 mm Hg
- HR [4, 12]: 376.0 ± 15.3
- SBP [4, 12]: 148.6 ± 4.5 mm Hg
- DBP [4, 13]: 98.5 ± 4.7 mm Hg
- HR [4, 13]: 393.6 ± 19.1
- SBP [4, 13]: 130.5 ± 4.6 mm Hg
- DBP [4, 14]: 120.1 ± 5.0 mm Hg
- HR [4, 14]: 357.1 ± 14.8
- SBP [4, 14]: 149.1 ± 3.4 mm Hg
- changes of the heart rate ([4]; control or experimental arm): No significant changes of the heart rate
- effect on blood pressure, dose dependence ([4]; peak at 10 mg/kg after 7 days of treatment): dose-dependent decrease of blood pressure
- effect on vascular endothelial growth factor production ([5]; 10 mg/kg dose: p=0.116 vs. control): dose-dependent trend to the normalization of vascular endothelial growth factor production
- VEGF ([5]; AS-6 0.5 mg/kg): 46.01 ± 2.42 pg/mL
- VEGF ([5]; AS-6 5.0 mg/kg): 79.49 ± 19.75 pg/mL
- VEGF ([5]; AS-6 10.0 mg/kg): 91.95 ± 21.84 pg/mL
